{"source": "PubChem BioAssay (NCI)", "assay_in_all_cases": "NCI-60 cell line screen, 48 h", "key": {"[1]": {"system": "SW-620 colon"}, "[2]": {"system": "T-47D breast"}, "[3]": {"system": "KM12 colon"}, "[4]": {"system": "SR leukemia"}, "[5]": {"system": "UACC-62 melanoma"}, "[6]": {"system": "MDA-MB-435"}, "[7]": {"system": "786-0 renal"}, "[8]": {"system": "SK-OV-3 ovarian"}, "[9]": {"system": "OVCAR-3 ovarian"}, "[10]": {"system": "SK-MEL-2 melanoma"}, "[11]": {"system": "MDA-MB-468 breast"}, "[12]": {"system": "SN12C renal"}, "[13]": {"system": "PC-3 prostate"}, "[14]": {"system": "MALME-3M melanoma"}, "[15]": {"system": "COLO 205 colon"}, "[16]": {"system": "UACC-257 melanoma"}, "[17]": {"system": "HT29 colon"}, "[18]": {"system": "OVCAR-5 ovarian"}, "[19]": {"system": "DU-145 prostate"}, "[20]": {"system": "HOP-62 NSCLC"}, "[21]": {"system": "LOX IMVI melanoma"}, "[22]": {"system": "SF-539 CNS"}, "[23]": {"system": "BT-549 breast"}, "[24]": {"system": "ACHN renal"}, "[25]": {"system": "OVCAR-8 ovarian"}, "[26]": {"system": "U251 CNS"}, "[27]": {"system": "RPMI-8226 leukemia"}, "[28]": {"system": "SF-295 CNS"}, "[29]": {"system": "NCI-H226 lung"}}, "note": "“And” between values parts separate entries of the source, which are not always exact repeats. Equal values may be shown once.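 These data come from cells grown in 96-well plates and exposed to compound for 48 hours at five concentrations. GI50 = concentration required for 50% inhibition of growth. TGI: concentration producing complete growth inhibition.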", "data": [{"compound": "COc1ccc(C(=O)/C=C/c2ccc(OCc3ccccc3)c(OC)c2)cc1OC", "values": [{"measurement": "GI50", "setting": "[1]", "value": 3.64, "unit": "µM"}, {"measurement": "TGI", "setting": "[1]", "value": "> 100", "unit": "µM"}, {"measurement": "GI50", "setting": "[2]", "value": 5.46, "unit": "µM"}, {"measurement": "TGI", "setting": "[2]", "value": "> 100", "unit": "µM"}, {"measurement": "GI50", "setting": "[3]", "value": 5.19, "unit": "µM"}, {"measurement": "TGI", "setting": "[3]", "value": "> 100", "unit": "µM"}, {"measurement": "GI50", "setting": "[4]", "value": 2.8, "unit": "µM"}, {"measurement": "TGI", "setting": "[4]", "value": "> 100", "unit": "µM"}, {"measurement": "GI50", "setting": "[5]", "value": 6.42, "unit": "µM"}, {"measurement": "TGI", "setting": "[5]", "value": "> 100", "unit": "µM"}, {"measurement": "GI50", "setting": "[6]", "value": 12, "unit": "µM"}, {"measurement": "TGI", "setting": "[6]", "value": 59.6, "unit": "µM"}, {"measurement": "GI50", "setting": "[7]", "value": 25.4, "unit": "µM"}, {"measurement": "TGI", "setting": "[7]", "value": "> 100", "unit": "µM"}, {"measurement": "GI50", "setting": "[8]", "value": 40.5, "unit": "µM"}, {"measurement": "TGI", "setting": "[8]", "value": "> 100", "unit": "µM"}, {"measurement": "GI50", "setting": "[9]", "value": 4.48, "unit": "µM"}, {"measurement": "TGI", "setting": "[9]", "value": "> 100", "unit": "µM"}, {"measurement": "GI50", "setting": "[10]", "value": 17.4, "unit": "µM"}, {"measurement": "TGI", "setting": "[10]", "value": 60.5, "unit": "µM"}, {"measurement": "GI50", "setting": "[11]", "value": "2.15 µM and 3.99 µM"}, {"measurement": "TGI", "setting": "[11]", "value": "7.35 µM and 32.2 µM"}, {"measurement": "GI50", "setting": "[12]", "value": 4.48, "unit": "µM"}, {"measurement": "TGI", "setting": "[12]", "value": 45.7, "unit": "µM"}, {"measurement": "GI50", "setting": "[13]", "value": 7.05, "unit": "µM"}, {"measurement": "TGI", "setting": "[13]", "value": "> 100", "unit": "µM"}, {"measurement": "GI50", "setting": "[14]", "value": 41.1, "unit": "µM"}, {"measurement": "TGI", "setting": "[14]", "value": "> 100", "unit": "µM"}, {"measurement": "GI50", "setting": "[15]", "value": 15.7, "unit": "µM"}, {"measurement": "TGI", "setting": "[15]", "value": "> 100", "unit": "µM"}, {"measurement": "GI50", "setting": "[16]", "value": 29.3, "unit": "µM"}, {"measurement": "TGI", "setting": "[16]", "value": "> 100", "unit": "µM"}, {"measurement": "GI50", "setting": "[17]", "value": 3.52, "unit": "µM"}, {"measurement": "TGI", "setting": "[17]", "value": "> 100", "unit": "µM"}, {"measurement": "GI50", "setting": "[18]", "value": 12.5, "unit": "µM"}, {"measurement": "TGI", "setting": "[18]", "value": 92.2, "unit": "µM"}, {"measurement": "GI50", "setting": "[19]", "value": 5.78, "unit": "µM"}, {"measurement": "TGI", "setting": "[19]", "value": "> 100", "unit": "µM"}, {"measurement": "GI50", "setting": "[20]", "value": 4.95, "unit": "µM"}, {"measurement": "TGI", "setting": "[20]", "value": "> 100", "unit": "µM"}, {"measurement": "GI50", "setting": "[21]", "value": 4.11, "unit": "µM"}, {"measurement": "TGI", "setting": "[21]", "value": 37.1, "unit": "µM"}, {"measurement": "GI50", "setting": "[22]", "value": 3.38, "unit": "µM"}, {"measurement": "TGI", "setting": "[22]", "value": 13.1, "unit": "µM"}, {"measurement": "GI50", "setting": "[23]", "value": 5.08, "unit": "µM"}, {"measurement": "TGI", "setting": "[23]", "value": 55.7, "unit": "µM"}, {"measurement": "GI50", "setting": "[24]", "value": 15.3, "unit": "µM"}, {"measurement": "TGI", "setting": "[24]", "value": "> 100", "unit": "µM"}, {"measurement": "GI50", "setting": "[25]", "value": 3.6, "unit": "µM"}, {"measurement": "TGI", "setting": "[25]", "value": "> 100", "unit": "µM"}, {"measurement": "GI50", "setting": "[26]", "value": 3.16, "unit": "µM"}, {"measurement": "TGI", "setting": "[26]", "value": "> 100", "unit": "µM"}, {"measurement": "GI50", "setting": "[27]", "value": 3.02, "unit": "µM"}, {"measurement": "TGI", "setting": "[27]", "value": "> 100", "unit": "µM"}, {"measurement": "GI50", "setting": "[28]", "value": 9.59, "unit": "µM"}, {"measurement": "TGI", "setting": "[28]", "value": "> 100", "unit": "µM"}, {"measurement": "GI50", "setting": "[29]", "value": 5.34, "unit": "µM"}, {"measurement": "TGI", "setting": "[29]", "value": 87.3, "unit": "µM"}]}]}
